Consider 22 molecules from US20240208969A1, “SUBSTITUTED FUSED BICYCLIC COMPOUNDS AS PARP INHIBITORS AND THE USE THEREOF” (IMPACT THERAPEUTICS (SHANGHAI), INC., priority 2021, published 2024).

pIC50: −log10 of the molar value.

One assay has as its target PARP1 (Homo sapiens, UniProt P09874). As to the kind of experiment: PARP1 chemiluminescent assay. In kind it is biochemical. The conditions noted are these: recombinant PARP1 enzyme activity, chemiluminescence. The protocol: (§1) Mix the solution of recombinant poly ADP ribotransferase 1 and 2 (PARP1 and PARP2) (40 ng enzyme/well) and the compounds to be tested, respectively. And then added to a 96-well plate coated with […] mixture, incubated at room temperature for 1 h. Then add 50 μL 0.3 ng/mL Streptavidin-HRP to each well. The plates were incubated for 30 minutes at room temperature. Finally, the plates were treated with streptavidin-HRP followed by addition of the ELISA ECL substrate to produce chemiluminescence that can then be measured using a chemiluminescence reader. The inhibition rate of the compound to PARP1/2 enzyme activity was calculated according to the following formula. [formula] IC50 value is obtained by fitting the s-shaped dose response curve equation by using XL Fit software. The curve equation is Y=100/(1+10^(log C−log IC50)), C is the compound concentration. Table 1 summarizes the inhibitory effects of compounds on PARP1 and PARP2 enzyme activity (IC50), wherein +++++ indicates IC50≤1 nM; ++++ indicates 1<IC50≤10 nM; +++ indicates 10 nM<IC50≤100 nM: ++ indicates 100 nM<IC50≤1 μM; + indicates IC50>1 μM.

In the next assay the target is PARP2 (Homo sapiens, UniProt Q9UGN5). The experiment in a line: PARP2 chemiluminescent assay. It counts as biochemical. The conditions noted are these: recombinant PARP2 enzyme activity, chemiluminescence. Here is the method: as §1
A further assay deals with MDA-MB-436 cells. The experiment in a line: Inhibition of proliferation of human breast cancer MDA-MB-436 cell line (CCK-8, 7 days). In kind it is cell-based. The conditions noted are these: proliferation of MDA-MB-436, 7 days. In outline:
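Cells seeded at 3000/well were treated next day with 8 serial doses (DMSO control) for 7 days at 37° C., 5% CO2, with compound medium changed on day four. CCK-8 was added for 4 hours and OD read as 450 nm minus 650 nm. IC50 came from a sigmoidal fit of survival relative to DMSO.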

Chain of PARP1 (P09874 whole entry): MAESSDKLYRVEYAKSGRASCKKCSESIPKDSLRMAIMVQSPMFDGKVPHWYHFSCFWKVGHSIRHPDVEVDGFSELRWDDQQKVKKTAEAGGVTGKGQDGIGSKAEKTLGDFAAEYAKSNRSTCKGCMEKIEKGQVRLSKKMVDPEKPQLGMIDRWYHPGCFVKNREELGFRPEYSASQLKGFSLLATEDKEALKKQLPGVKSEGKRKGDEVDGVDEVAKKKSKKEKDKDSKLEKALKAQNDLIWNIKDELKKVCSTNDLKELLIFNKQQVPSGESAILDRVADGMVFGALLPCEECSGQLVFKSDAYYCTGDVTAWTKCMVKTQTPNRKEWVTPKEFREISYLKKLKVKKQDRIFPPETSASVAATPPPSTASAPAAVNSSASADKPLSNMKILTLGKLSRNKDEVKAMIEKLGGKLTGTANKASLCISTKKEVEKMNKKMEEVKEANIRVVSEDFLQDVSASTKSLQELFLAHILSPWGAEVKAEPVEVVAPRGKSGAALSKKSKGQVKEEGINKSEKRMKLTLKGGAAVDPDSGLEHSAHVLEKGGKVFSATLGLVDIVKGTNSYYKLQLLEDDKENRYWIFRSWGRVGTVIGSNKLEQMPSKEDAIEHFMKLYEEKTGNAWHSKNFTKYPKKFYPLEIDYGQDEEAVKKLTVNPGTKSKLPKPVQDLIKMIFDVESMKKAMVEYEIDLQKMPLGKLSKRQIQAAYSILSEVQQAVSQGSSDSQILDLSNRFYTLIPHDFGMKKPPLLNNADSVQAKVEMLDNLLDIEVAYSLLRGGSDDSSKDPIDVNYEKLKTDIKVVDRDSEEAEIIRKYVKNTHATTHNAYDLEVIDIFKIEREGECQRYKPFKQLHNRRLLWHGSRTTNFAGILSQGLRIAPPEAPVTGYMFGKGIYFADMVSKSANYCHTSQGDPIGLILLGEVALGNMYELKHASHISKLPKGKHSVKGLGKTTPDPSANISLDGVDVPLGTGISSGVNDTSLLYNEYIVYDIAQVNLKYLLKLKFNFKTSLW
Chain of PARP2 (Q9UGN5 whole entry, species assumed): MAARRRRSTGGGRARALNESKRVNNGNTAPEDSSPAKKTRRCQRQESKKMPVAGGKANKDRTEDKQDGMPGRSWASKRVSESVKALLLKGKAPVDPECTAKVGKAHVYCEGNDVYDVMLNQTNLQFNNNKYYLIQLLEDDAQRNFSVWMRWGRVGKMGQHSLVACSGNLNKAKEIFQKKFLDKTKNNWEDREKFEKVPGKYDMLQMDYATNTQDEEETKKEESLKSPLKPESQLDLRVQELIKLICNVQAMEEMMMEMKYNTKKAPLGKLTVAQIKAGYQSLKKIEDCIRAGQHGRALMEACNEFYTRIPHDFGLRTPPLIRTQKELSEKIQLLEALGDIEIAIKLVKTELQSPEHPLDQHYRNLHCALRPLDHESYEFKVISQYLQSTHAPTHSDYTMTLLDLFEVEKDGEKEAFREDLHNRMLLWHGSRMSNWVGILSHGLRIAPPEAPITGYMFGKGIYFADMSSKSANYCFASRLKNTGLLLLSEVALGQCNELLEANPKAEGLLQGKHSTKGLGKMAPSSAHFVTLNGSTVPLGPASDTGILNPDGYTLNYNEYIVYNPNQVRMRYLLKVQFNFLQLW

As for `CCn1c(=O)[nH]c2cc(CN3CCN(c4ccc(C(N)=O)nc4F)CC3)ccc2c1=O` [Example 32, 5-(4-((3-ethyl-2,4-dioxo-1,2,3,4-tetrahydroquinazolin-7-yl)methyl)piperazin-1-yl)-6-fluoropicolinamide], the IC50 (as a rule, the point on the concentration scale where inhibition reaches its midpoint) on PARP1 lay in the range of 1 to 10 nM; at PARP2 it was 100 to 1000 nM. Moreover, in the assay on MDA-MB-436 cells (Homo sapiens, 168 h), the pIC50 – broadly, the IC50 on a negative log10 scale, so that one unit is a factor of ten – is 7.00 to 8.00.

With `O=C(c1cc(Cn2c(=O)[nH]c(=O)c3c(F)cccc32)ccc1F)N1CCN(c2ncccn2)CC1` [Senaparib, reference compound], the IC50 on PARP1 and on PARP2 was 1 to 10 nM each time. Further, the pIC50 in the assay with MDA-MB-436 cells is 8.00 to 9.00.

Consider `CCn1c(=O)[nH]c2cc(-c3cccc(C(=O)Nc4ccc(C(=O)NC)nc4)c3)ccc2c1=O` [Example 41, 5-(3-(3-ethyl-2,4-dioxo-1,2,3,4-tetrahydroquinazolin-7-yl)benzamido)-N-methylpicolinamide], for which the IC50 is 1 to 10 nM on PARP1 and over 1000 nM at PARP2. This molecule also gave a pIC50 in the assay on MDA-MB-436 cells (Homo sapiens, 168 h) of under 6.00.

Turning to `CCn1c(=O)[nH]c2cc(CN3CCN(c4ccc(C(=O)NC)nc4C)CC3)ccc2c1=O` [Example 22, 5-(4-((3-ethyl-2,4-dioxo-1,2,3,4-tetrahydroquinazolin-7-yl)methyl)piperazin-1-yl)-N,6-dimethylpicolinamide], the results for the IC50 on PARP1 and on PARP2 were 1 to 10 nM and over 1000 nM, respectively. Also, in the assay on MDA-MB-436 cells (Homo sapiens, 168 h), the pIC50 was 8.00 to 9.00.

Consider `CCn1c(=O)[nH]c2cc(CN3CCN(c4ccc(C(=O)NC)nc4F)CC3)ccc2c1=O` [Example 13, 5-(4-((3-ethyl-2,4-dioxo-1,2,3,4-tetrahydroquinazolin-7-yl)methyl)piperazin-1-yl)-6-fluoro-N-methylpicolinamide], for which the concentration for half-maximal inhibition (IC50) on PARP1 lay in the range of 1 to 10 nM; at PARP2 it was 100 to 1000 nM. In addition, in the assay on MDA-MB-436 cells (Homo sapiens, 168 h), the negative logarithm of the IC50 (pIC50) was 8.00 to 9.00.

In the case of `CCCn1c(=O)[nH]c2cc(CN3CCN(c4ccc(C(=O)NC)nc4)CC3)cnc2c1=O` [Example 7], the concentration for half-maximal inhibition (IC50) on PARP1 is at most 1 nM; at PARP2, over 1000 nM. The molecule further gave a pIC50 with MDA-MB-436 cells (Homo sapiens, 168 h) of under 6.00.

In the case of `CCNC(=O)c1ccc(N2CCN(Cc3ccc4c(c3)NC(=O)N(CC)C4)CC2)c(C)n1` [Example 117, 5-(4-((3-ethyl-2-oxo-1,2,3,4-tetrahydroquinazolin-7-yl)methyl)piperazin-1-yl)-6-methyl-N-ethylpicolinamide], the IC50 was 1 to 10 nM on PARP1 and over 1000 nM on PARP2. In addition, the pIC50 in the assay on MDA-MB-436 cells (Homo sapiens, 168 h) is 8.00 to 9.00.

As to `CCn1c(=O)[nH]c2cc(CN3CCN(c4ccc(C(=O)NC)nc4C)CC3)c(F)cc2c1=O` [Example 67, 5-(4-((3-ethyl-6-fluoro-2,4-dioxo-1,2,3,4-tetrahydroquinazolin-7-yl)methyl)piperazin-1-yl)-N,6-dimethylpicolinamide], the concentration for half-maximal inhibition (IC50) at PARP1 was 10 to 100 nM; on PARP2 it was over 1000 nM. In the assay with MDA-MB-436 cells (Homo sapiens, 168 h), this molecule gave a pIC50 of 6.00 to 7.00.

Consider `CCn1c(=O)[nH]c2cc(CN3CCN(c4ccc(C(=O)NC)nc4C)CC3)cnc2c1=O` [Example 4, 5-(4-((3-ethyl-2,4-dioxo-1,2,3,4-tetrahydropyrido[3,2-d]pyrimidin-7-yl)methyl)piperazin-1-yl)-N,6-dimethylpicolinamide], for which the results for the IC50 on PARP1 and at PARP2 were 1 to 10 nM and over 1000 nM, respectively. The negative-log IC50 (pIC50) with MDA-MB-436 cells (Homo sapiens, 168 h) is 7.00 to 8.00.

As for `CCn1c(=O)[nH]c2cc(CN3CCN(c4cnc(C(=O)NC)nc4)CC3)ccc2c1=O` [Example 27], the IC50 is 1 to 10 nM on PARP1 and 100 to 1000 nM on PARP2. Moreover, in the assay on MDA-MB-436 cells (Homo sapiens, 168 h), the pIC50 was under 6.00.

On to `CNC(=O)c1ccc(N2CCN(Cc3cnc4c(=O)n(C(C)C)c(=O)[nH]c4c3)CC2)cn1` [Example 3, 5-(4-((3-isopropyl-2,4-dioxo-1,2,3,4-tetrahydropyrido[3,2-d]pyrimidin-7-yl)methyl)piperazin-1-yl)-N-methylpicolinamide], for which the figures for the IC50 on PARP1 and on PARP2 were 10 to 100 nM and over 1000 nM, respectively. For the same molecule, the negative-log IC50 (pIC50) in the assay with MDA-MB-436 cells (Homo sapiens, 168 h) was under 6.00.

As to `CNC(=O)c1ccc(NC(=O)c2cccc(-c3ccc4c(=O)n(C)c(=O)[nH]c4c3)c2)cn1` [Example 40, 5-(3-(3-methyl-2,4-dioxo-1,2,3,4-tetrahydroquinazolin-7-yl)benzamido)N-methylpicolinamide], the IC50 on PARP1 is 1 to 10 nM; at PARP2, over 1000 nM. In the assay with MDA-MB-436 cells (Homo sapiens, 168 h), this molecule gave a pIC50 of under 6.00.

Take `CCn1c(=O)[nH]c2cc(CN3CCN(c4ccc(C(=O)NC)cn4)CC3)ccc2c1=O` [Example 28, 6-(4-((3-ethyl-2,4-dioxo-1,2,3,4-tetrahydroquinazolin-7-yl)methyl)piperazin-1-yl)-N-methylnicotinamide]: the IC50 at PARP1 lay within 1 to 10 nM; on PARP2, 100 to 1000 nM. This molecule also gave a pIC50 in the assay on MDA-MB-436 cells (Homo sapiens, 168 h) of under 6.00.

On to `CCN1Cc2ccc(CN3CCN(c4ccc(C(=O)NC)nc4Cl)CC3)cc2NC1=O` [Example 115], for which the IC50 is 1 to 10 nM at PARP1 and over 1000 nM at PARP2. In the assay with MDA-MB-436 cells (Homo sapiens, 168 h), this molecule gave a negative-log IC50 (pIC50) of 8.00 to 9.00.

With `CCNC(=O)c1ccc(N2CCN(Cc3ccc4c(=O)n(CC)c(=O)[nH]c4c3)CC2)c(F)n1` [Example 33, 5-(4-((3-ethyl-2,4-dioxo-1,2,3,4-tetrahydroquinazolin-7-yl)methyl)piperazin-1-yl)-6-fluoro-N-ethylpicolinamide], the values for the IC50 on PARP1 and on PARP2 were 1 to 10 nM and 100 to 1000 nM, respectively. For the same molecule, in the assay on MDA-MB-436 cells (Homo sapiens, 168 h), the pIC50 was 8.00 to 9.00.

Turning to `CCn1c(=O)[nH]c2cc(CN3CCN(c4ccc(C(=O)NC)nc4)CC3)cnc2c1=O` [Example 1, 5-(4-((3-ethyl-2,4-dioxo-1,2,3,4-tetrahydropyrido[3,2-d]pyrimidin-7-yl)methyl)piperazin-1-yl)-N-methylpicolinamide], the IC50 was at most 1 nM on PARP1 and 100 to 1000 nM at PARP2. Moreover, the pIC50 in the assay with MDA-MB-436 cells (Homo sapiens, 168 h) is under 6.00.

`CCN1Cc2ccc(CN3CCN(c4ccc(C(=O)NC)nc4F)CC3)cc2NC1=O` [Example 114, 5-(4-((3-ethyl-2-oxo-1,2,3,4-tetrahydroquinazolin-7-yl)methyl)piperazin-1-yl)-6-fluoro-N-methylpicolinamide]: the IC50 on PARP1 is 1 to 10 nM; on PARP2 it was over 1000 nM. Moreover, the negative-log IC50 (pIC50) in the assay on MDA-MB-436 cells (Homo sapiens, 168 h) is 7.00 to 8.00.

On to `CCn1c(=O)[nH]c2cc(CN3CCN(c4ccc(C(=O)NC)nc4Cl)CC3)c(F)cc2c1=O` [Example 61, 6-chloro-5-(4-((3-ethyl-6-fluoro-2,4-dioxo-1,2,3,4-tetrahydroquinazolin-7-yl)methyl)piperazin-1-yl)-N-methylpicolinamide], for which the half-inhibitory concentration (IC50) at PARP1 is 1 to 10 nM; on PARP2 it was over 1000 nM. Besides, the pIC50 in the assay on MDA-MB-436 cells (Homo sapiens, 168 h) is 7.00 to 8.00.

For the molecule `CCn1c(=O)[nH]c2cc(CN3CCN(c4ccc(C(=O)NC)nc4)CC3)ccc2c1=O` [Example 12, 5-(4-((3-ethyl-2,4-dioxo-1,2,3,4-tetrahydroquinazolin-7-yl)methyl)piperazin-1-yl)-N-methylpicolinamide], the IC50 at PARP1 lay within 1 to 10 nM; at PARP2 it was 100 to 1000 nM. The same molecule showed a pIC50 in the assay on MDA-MB-436 cells (Homo sapiens, 168 h) of 7.00 to 8.00.

Take `CCn1c(=O)[nH]c2cc(CN3CCN(c4ccc(C(=O)NC)nc4Cl)CC3)cnc2c1=O` [Example 10, 5-(4-((3-ethyl-2,4-dioxo-1,2,3,4-tetrahydropyrido[3,2-d]pyrimidin-7-yl)methyl)piperazin-1-yl)-6-chloro-N-methylpicolinamide]: the IC50 at PARP1 is 1 to 10 nM; on PARP2, over 1000 nM. Besides, the negative logarithm of the IC50 (pIC50) in the assay on MDA-MB-436 cells (Homo sapiens, 168 h) is under 6.00.

Turning to `CNC(=O)c1ccc(N2CCN(Cc3ccc4c(=O)n(C(C)C)c(=O)[nH]c4c3)CC2)c(F)n1` [Example 26, 5-(4-((3-isopropyl-2,4-dioxo-1,2,3,4-tetrahydroquinazolin-7-yl)methyl)piperazin-1-yl)-6-fluoro-N-methylpicolinamide], the values for the IC50 on PARP1 and at PARP2 were 1 to 10 nM and over 1000 nM, respectively. The molecule also gave a pIC50 in the assay with MDA-MB-436 cells (Homo sapiens, 168 h) of 6.00 to 7.00.

For `CCn1c(=O)[nH]c2cc(CN3CCN(c4ccc(C(=O)NC)nc4Cl)CC3)cc(Cl)c2c1=O` [Example 63, 6-chloro-5-(4-((5-chloro-3-ethyl-2,4-dioxo-1,2,3,4-tetrahydroquinazolin-7-yl)methyl)piperazin-1-yl)-N-methylpicolinamide], the half-inhibitory concentration (IC50) on PARP1 lay in the range of 1 to 10 nM; at PARP2, 100 to 1000 nM. Besides, the pIC50 in the assay on MDA-MB-436 cells (Homo sapiens, 168 h) is 8.00 to 9.00.
